The results in this text go back to patent publication US9174933B2.

A short description of the data set: Dynamic Vapor Sorption/Desorption (DVS). The format is physicochemical. Particulars: 5% to 95% relative humidity at 10% RH intervals, nitrogen purge. As for the experimental part: Moisture sorption/desorption data were collected on a VTI SGA-100 Vapor Sorption Analyzer. Sorption and desorption data were collected over a range of 5% to 95% relative humidity (RH) at 10% RH intervals under a nitrogen purge. Samples were not dried prior to analysis. Equilibrium criteria used for analysis were less than 0.0100% weight change in 5 minutes, with a maximum equilibration time of 3 hours if the weight criterion was not met. Data were not corrected for the initial moisture content of the samples. Sodium chloride and polyvinypyrrolidine were used as calibration standards.

Take `COc1cc(F)c(F)c(Nc2ccc(I)cc2F)c1NS(=O)(=O)C1(C[C@H](O)CO)CC1` [Form A]: the “weight change during moisture sorption/desorption” value is on record as “negligible weight change”.
